Data published in patent publication US20240115654A1, “INTRAVENOUS ADMINISTRATION OF ENGINEERED ANTIMICROBIAL AMPHIPHILIC PEPTIDES” (priority 2021, published 2024).
In brackets after ≈: the same amount, converted by molar mass. Peptide text beside a SMILES is read from it.

Columns and labels:
[1] = tested on: Staphylococcus aureus isolates (n = 104); test: microbe, parasite or virus in culture
Protocol: Comparator antibiotics were supplied by Micromyx, and stock solutions were prepared on the first day of testing using solvents recommended by CLSI (1). Stock solutions of all compounds were made at 40× the final testing concentration and stored at −80° C. prior to testing. Information regarding compound source, catalog and lot number, testing concentrations and drug diluent for the comparators and test agent are detailed below in Table 3.
The test organisms evaluated in this study consisted of clinical isolates from the Micromyx Repository and reference isolates from the American Type Culture Collection (ATCC; Manassas, VA). The clinical isolates were obtained from USA hospitals. Upon initial receipt at Micromyx, the organisms were sub-cultured onto an appropriate agar medium. Following incubation, colonies were harvested from these plates and cell suspensions prepared and frozen at −80° C. with a cryoprotectant. Prior to testing, the isolates were streaked from frozen vials onto Trypticase Soy Agar with 5% sheep blood (Becton Dickenson [BD]; Sparks, MD; Lot Nos. 7173618, 7166759, 7208688, 72144895, 7228505 and Remel Lenexa, KS Lot No. 212574). Plates were incubated at 35° C. overnight.
Mueller Hinton II broth (MHB II; BD; Lot Nos. 6258541 and 7143896) was used for MIC testing of aerobic organisms.
MIC values were determined using a broth microdilution procedure described by CLSI (1, 3). Automated liquid handlers (Multidrop 384, Labsystems, Helsinki, Finland; Biomek 2000 and Biomek FX, Beckman Coulter, Fullerton CA) were used to conduct serial dilutions and liquid transfers.
To prepare the drug mother plates, which would provide the serial drug dilutions for the replicate daughter plates, the wells of columns 2-12 of standard 96-well microdilution plates (Costar 3795) were filled with 150 μl of the designated diluent for each row of drug. The test articles and comparator compounds (300 μl at 40× the highest concentration to be tested) were dispensed into the appropriate wells in column 1. The Biomek 2000 was then used to make 2-fold serial dilutions in the mother plates from column 1 through column 11. The wells of Column 12 contained no drug and served as the organism growth control wells for the assay.
The daughter plates were loaded with 185 μL per well of MHB II using the Multidrop 384. The daughter plates were completed on the Biomek FX instrument which transferred 5 μL of drug solution from each well of a mother plate to the corresponding well of each daughter plate in a single step. A standardized inoculum of each test organism was prepared per CLSI methods (1). The inoculum for each organism was dispensed into sterile reservoirs divided by length (Beckman Coulter), and the Biomek 2000 was used to inoculate the plates. Daughter plates were placed on the Biomek 2000 work surface in reverse orientation so that inoculation took place from low to high drug concentration.
Plates were stacked 3-4 high, covered with a lid on the top plate, placed in plastic bags, and incubated at 35° C. for 16 to 20 hrs. Following incubation, the microplates were removed from the incubator and viewed from the bottom using a plate viewer. […] The MIC was read and recorded as the lowest concentration of drug that inhibited visible growth of the organism.
Clinical breakpoints to determine percent resistance within a given organism group were obtained from CLSI (3), with the exception of colistin for K. pneumoniae, Enterobacter spp., and E. coli, which are only available from EUCAST.

clinical = settings: human, plasma, iv, Plasma Concentration by Nominal Time from Start of Infusion; for level at 0.5 h: 0.50 h
Protocol: Administration was a single 1-hour infusion.
Subjects were enrolled in sequential cohorts of peptide ascending dose levels and randomly assigned to receive a single IV administration of either peptide or placebo over 1 to 2 hours. […] In addition, the infusion volume was adjusted for Cohort 4 to maintain drug concentrations in line with Cohort 2
Blood samples for PK assessment were collected at pre-dose, at the midpoint of infusion, within 1 minute after the end-of-infusion and at 0.5, 1, 2, 4, 6, 8, 12, 20, 24, 36 and 48 hours after the end-of-infusion.
The pharmaceutical composition was stored at 2° C. to 8° C. for up to 14 days and then 15° C. to 25° C. for up to 48 hours for dosing.
Subjects were enrolled in sequential cohorts of peptide ascending dose levels and randomly assigned to receive a single IV administration of either peptide or placebo over 1 to 2 hours.

[2] = Staphylococcus aureus (n = 104), all methicillin-resistant
[3] = 0.05 mg/kg, Cohort 1, 0.05 mg/kg IV 1-hr infusion, individual subject
[4] = 0.05 mg/kg, Cohort 1, 0.05 mg/kg IV 1 hr infusion, individual subjects
[5] = 0.05 mg/kg, Mean, Cohort 1, 0.05 mg/kg IV 1-hr infusion, cohort mean
[6] = 0.05 mg/kg, Mean, Cohort 1, 0.05 mg/kg IV 1 hr infusion, cohort mean N 6
[7] = 0.5 mg/kg, Mean, Cohort 4, 0.5 mg/kg IV 2-hr infusion, cohort mean
[8] = 0.5 mg/kg, Mean, Cohort 4, 0.5 mg/kg IV, infusion 2 hours, cohort mean N 6
[9] = 1 mg/kg, Mean, Cohort 5, 1 mg/kg IV 4-hr infusion, cohort mean

Q: For `CC(C)[C@H](NC(=O)[C@H](Cc1c[nH]c2ccccc12)NC(=O)[C@H](CCCNC(=N)N)NC(=O)[C@H](CCCNC(=N)N)NC(=O)[C@@H](NC(=O)[C@@H](NC(=O)[C@H](CCCNC(=N)N)NC(=O)[C@@H](NC(=O)[C@@H](NC(=O)[C@H](CCCNC(=N)N)NC(=O)[C@H](CCCNC(=N)N)NC(=O)[C@H](Cc1c[nH]c2ccccc12)NC(=O)[C@@H](NC(=O)[C@H](CCCNC(=N)N)NC(=O)[C@H](CCCNC(=N)N)NC(=O)[C@@H](NC(=O)[C@H](CCCNC(=N)N)NC(=O)[C@H](CCCNC(=N)N)NC(=O)[C@@H](NC(=O)[C@H](Cc1c[nH]c2ccccc12)NC(=O)[C@H](CCCNC(=N)N)NC(=O)[C@@H](N)CCCNC(=N)N)C(C)C)C(C)C)C(C)C)C(C)C)C(C)C)C(C)C)C(C)C)C(=O)N[C@@H](CCCNC(=N)N)C(=O)N[C@@H](CCCNC(=N)N)C(N)=O` [SEQ ID NO: 1] (H-RRWVRRVRRVWRRVVRVVRRWVRR-NH2), which MIC50 ([1]; S. aureus MRSA, n=104) is on record?
A: 4 mg/L (≈ 1.18 µM)

Q: What about the MIC90 ([1]; S. aureus MRSA, n=104) of the same compound?
A: 8 mg/L (≈ 2.35 µM)

Q: What about the MIC range ([1]; S. aureus MRSA, n=104) of the same compound?
A: 1 to 16 mg/L

Q: What about the MIC50 [1, 2] of the same compound?
A: 4 mg/L (≈ 1.18 µM)

Q: And the MIC90 [1, 2]?
A: 8 mg/L (≈ 2.35 µM)

Q: What about the “Mode (MIC)” value [1, 2] of the same compound?
A: 4 mg/L

Q: And the level at 0 h (clinical; [3])?
A: 0.00603 µg/mL

Q: And the level at 0.5 h (clinical; [3])?
A: 0.166 µg/mL

Q: And the level at 21 h (clinical; [3])?
A: 0.0126 µg/mL

Q: What about the level at 37 h (clinical; [3]) of the same compound?
A: 0.00659 µg/mL

Q: What about the level at 0 h (clinical; [4]) of the same compound?
A: 0.00603 µg/mL

Q: What about the level at 0.5 h (clinical; [4]) of the same compound?
A: 0.166 µg/mL

Q: And the level at 21 h (clinical; [4])?
A: 0.0126 µg/mL

Q: What about the level at 37 h (clinical; [4]) of the same compound?
A: 0.00659 µg/mL

Q: What about the level at 0 h (clinical; [5]) of the same compound?
A: 0.00101 µg/mL

Q: What about the level at 0.5 h (clinical; [5]) of the same compound?
A: 0.189 µg/mL

Q: And the level at 1 h (clinical; [5])?
A: 0.256 µg/mL

Q: And the level at 2 h (clinical; [5])?
A: 0.108 µg/mL

Q: And the level at 3 h (clinical; [5])?
A: 0.0964 µg/mL

Q: What about the level at 5 h (clinical; [5]) of the same compound?
A: 0.0795 µg/mL

Q: What about the level at 7 h (clinical; [5]) of the same compound?
A: 0.0625 µg/mL

Q: What about the level at 9 h (clinical; [5]) of the same compound?
A: 0.0569 µg/mL

Q: And the level at 13 h (clinical; [5])?
A: 0.0315 µg/mL

Q: And the level at 21 h (clinical; [5])?
A: 0.0154 µg/mL

Q: What about the level at 25 h (clinical; [5]) of the same compound?
A: 0.0148 µg/mL

Q: And the level at 37 h (clinical; [5])?
A: 0.0011 µg/mL

Q: And the level at […] (clinical; [5])?
A: 0.134 µg/mL

Q: And the level at 0 h (clinical; [6])?
A: 0.00101 µg/mL

Q: And the level at 0.5 h (clinical; [6])?
A: 0.189 µg/mL

Q: And the level at 1 h (clinical; [6])?
A: 0.256 µg/mL

Q: And the level at 2 h (clinical; [6])?
A: 0.108 µg/mL

Q: What about the level at 3 h (clinical; [6]) of the same compound?
A: 0.0964 µg/mL

Q: And the level at 5 h (clinical; [6])?
A: 0.0795 µg/mL

Q: And the level at 7 h (clinical; [6])?
A: 0.0625 µg/mL

Q: And the level at 9 h (clinical; [6])?
A: 0.0569 µg/mL

Q: What about the level at 13 h (clinical; [6]) of the same compound?
A: 0.0315 µg/mL

Q: And the level at 21 h (clinical; [6])?
A: 0.0154 µg/mL

Q: What about the level at 25 h (clinical; [6]) of the same compound?
A: 0.0148 µg/mL

Q: And the level at 37 h (clinical; [6])?
A: 0.0011 µg/mL

Q: What about the level at […] (clinical; [6]) of the same compound?
A: 0.134 µg/mL

Q: And the level at 50 h (clinical; 0.5 mg/kg, Cohort 4, 0.5 mg/kg IV 2-hr infusion, individual subject)?
A: 0.0459 µg/mL

Q: What about the level at 1 h (clinical; [7]) of the same compound?
A: 1.21 µg/mL

Q: What about the level at 2 h (clinical; [7]) of the same compound?
A: 1.83 µg/mL

Q: And the level at 3 h (clinical; [7])?
A: 0.616 µg/mL

Q: And the level at 4 h (clinical; [7])?
A: 0.451 µg/mL

Q: What about the level at 6 h (clinical; [7]) of the same compound?
A: 0.33 µg/mL

Q: What about the level at 8 h (clinical; [7]) of the same compound?
A: 0.249 µg/mL

Q: And the level at 10 h (clinical; [7])?
A: 0.219 µg/mL

Q: And the level at 14 h (clinical; [7])?
A: 0.134 µg/mL

Q: And the level at 22 h (clinical; [7])?
A: 0.0763 µg/mL

Q: And the level at 26 h (clinical; [7])?
A: 0.0725 µg/mL

Q: And the level at 38 h (clinical; [7])?
A: 0.0412 µg/mL

Q: What about the level at 50 h (clinical; [7]) of the same compound?
A: 0.0257 µg/mL

Q: And the level at […] (clinical; [7])?
A: 0.877 µg/mL

Q: What about the level at 1 h (clinical; [8]) of the same compound?
A: 1.21 µg/mL

Q: What about the level at 2 h (clinical; [8]) of the same compound?
A: 1.83 µg/mL

Q: What about the level at 3 h (clinical; [8]) of the same compound?
A: 0.616 µg/mL

Q: And the level at 4 h (clinical; [8])?
A: 0.451 µg/mL

Q: What about the level at 6 h (clinical; [8]) of the same compound?
A: 0.33 µg/mL

Q: What about the level at 8 h (clinical; [8]) of the same compound?
A: 0.249 µg/mL

Q: And the level at 10 h (clinical; [8])?
A: 0.219 µg/mL

Q: And the level at 14 h (clinical; [8])?
A: 0.134 µg/mL

Q: What about the level at 22 h (clinical; [8]) of the same compound?
A: 0.0763 µg/mL

Q: And the level at 26 h (clinical; [8])?
A: 0.0725 µg/mL

Q: And the level at 38 h (clinical; [8])?
A: 0.0412 µg/mL

Q: And the level at 50 h (clinical; [8])?
A: 0.0257 µg/mL

Q: And the level at […] (clinical; [8])?
A: 0.877 µg/mL

Q: And the level at 2 h (clinical; [9])?
A: 2.04 µg/mL

Q: And the level at 4 h (clinical; [9])?
A: 2.65 µg/mL

Q: What about the level at 5 h (clinical; [9]) of the same compound?
A: 1.35 µg/mL

Q: What about the level at 6 h (clinical; [9]) of the same compound?
A: 1.13 µg/mL

Q: And the level at 8 h (clinical; [9])?
A: 0.803 µg/mL

Q: And the level at 10 h (clinical; [9])?
A: 0.604 µg/mL

Q: What about the level at 12 h (clinical; 1 mg/kg, Mean, Cohort 5, 1 mg/kg IV 4-hr infusion, 12 h, cohort mean) of the same compound?
A: 0.487 µg/mL

Q: And the level at 16 h (clinical; 1 mg/kg, Mean, Cohort 5, 1 mg/kg IV 4-hr infusion, 16 h, cohort mean)?
A: 0.287 µg/mL

Q: What about the level at 24 h (clinical; 1 mg/kg, Mean, Cohort 5, 1 mg/kg IV 4-hr infusion, 24 h, cohort mean) of the same compound?
A: 0.167 µg/mL

Q: What about the level at 28 h (clinical; 1 mg/kg, Mean, Cohort 5, 1 mg/kg IV 4-hr infusion, 28 h, cohort mean) of the same compound?
A: 0.18 µg/mL

Q: And the level at 40 h (clinical; 1 mg/kg, Mean, Cohort 5, 1 mg/kg IV 4-hr infusion, 40 h, cohort mean)?
A: 0.0987 µg/mL

Q: And the level at 52 h (clinical; 1 mg/kg, Mean, Cohort 5, 1 mg/kg IV 4-hr infusion, 52 h, cohort mean)?
A: 0.0996 µg/mL

Q: And the level at […] (clinical; [9])?
A: 1.81 µg/mL
